This passage reports inhibition and IC50 results from patent US11897865B2, “ABHD12 inhibitors and methods of making and using same” (THE SCRIPPS RESEARCH INSTITUTE, priority 2018, dated 2024).

pIC50: −log10 of the molar value.

This experiment deals with T1, ABHD12 (Mus musculus, UniProt Q99LR1).
T1 construct: from tissue; host or cells: brain membrane proteome
T1 sequence (Q99LR1 1-398): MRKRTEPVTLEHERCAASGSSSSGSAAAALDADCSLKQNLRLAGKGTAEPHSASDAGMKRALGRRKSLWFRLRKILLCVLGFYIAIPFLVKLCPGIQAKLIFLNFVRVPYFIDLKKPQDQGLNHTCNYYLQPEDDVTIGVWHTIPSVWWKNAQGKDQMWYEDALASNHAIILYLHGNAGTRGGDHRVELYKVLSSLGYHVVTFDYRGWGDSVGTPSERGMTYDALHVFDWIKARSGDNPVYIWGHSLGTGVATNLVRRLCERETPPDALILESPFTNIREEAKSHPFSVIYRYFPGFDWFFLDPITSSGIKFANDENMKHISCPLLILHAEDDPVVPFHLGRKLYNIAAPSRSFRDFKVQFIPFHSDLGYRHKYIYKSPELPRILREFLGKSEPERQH
Put plainly: Gel-based competitive ABPP, JJH350 probe vs brain membrane proteome. The class given is biochemical. The settings on record: for inhibition at 10 µM: 10 μM compound, read-out: % Inhibition @ 10 μM (ABPP gel_JJH350 probe vs brain mem); for pIC50: read-out: IC50 (ABPP gel_JJH350 probe vs brain mem). Here is the method:
Gel-Based Competitive ABPP for In Vitro Inhibitor Treatment of Proteomes:
Gel-based ABPP assays were performed as previously reported (Bachovchin, D. A. et al. Superfamily-wide portrait of serine hydrolase inhibition achieved by library-versus-library screening. Proc. Natl. Acad. Sci. U. S. A. 2010, 107, 20941-20946). Cell or tissue proteomes (50 μL, 1 mg/mL) were treated with either FP-Rh (1 μM final concentration) or JJH350 (2 μM final concentration) for 45 min at 37° C. For FP-Rh labeled samples, the reactions were quenched by adding 20 μL of 4× SDS-PAGE loading buffer. The 30 μL of the quenched samples were loaded on gel for analysis. For (S)-1,3-dioxo-7-(4-phenoxybenzoyl)hexahydroimidazo[1,5-a]pyrazin-2(3H)-yl 4-(4-(prop-2-yn-1-yloxy)phenyl)piperazine-1-carboxylate (JJH350)-labeled samples, copper-catalyzed azide-alkyne cycloaddition (CuAAC) was used for visualizing the labeled proteins following the reported protocol. Briefly, rhodamine-PEG3-N3 (1 μL/reaction, 1.25 mM in DMSO), CuSO4 (1 μL/reaction, 50 mM in H2O), TBTA (3 μL/reaction, 1.7 mM in DMSO/t-BuOH [1:4, v/v]) and tris(2-carboxyethyi)phosphine (TCEP) (1 μL/reaction, 50 mM in H2O, freshly prepared) were premixed. 6 μL of this click reagent mixture was immediately added to each JJH350-labeled samples (50 μL, 1 mg/mL) and incubated for 1 h at room temperature. The reactions were quenched by adding 20 μL of 4× SDS-PAGE loading buffer. The 40 μL of the quenched samples were loaded on a gel for analysis.
After separation by SDS-PAGE (10% acrylamide), samples were visualized by in-gel fluorescence scanning using the ChemiDoc MP system (Bio-Rad). Band intensities were quantified using the Image Lab (5.2.1) software (Bio-Rad).

Broadly, the inhibition is the share of the control response that was lost under treatment. A word on the pIC50: it is the negative decadic logarithm of the IC50, by convention in mol/L. In the case of `COc1ccnc(N2CCC(NC(=S)Nc3cccnc3)CC2)c1` [Example 44, 1-(1-(4-Methoxypyridin-2-yl)piperidin-4-yl)-3-(pyridin-3-yl)thiourea], the inhibition at 10 µM lay within 50 to 75% and the pIC50 is 4.60 to 6.00. For the molecule `S=C(Nc1cccnc1)NC1CCN(c2cc(-c3ccccc3)ccn2)CC1` [Example 45, 1-(1-(4-Phenylpyridin-2-yl)piperidin-4-yl)-3-(pyridin-3-yl)thiourea], the inhibition at 10 µM is 25 to 50% and the pIC50 was 4.60 to 6.00. Regarding `COc1ccc(-c2ccnc(N3CCC(NC(=S)Nc4cccnc4)CC3)c2)cc1` [Example 46, 1-(1-(4-(4-Methoxyphenyl)pyridin-2-yl)piperidin-4-yl)-3-(pyridin-3-yl)thiourea], the inhibition at 10 µM lay within 0 to 25%. Take `Fc1ccc(-c2ccnc(N3CCC(NC(=S)Nc4cccnc4)CC3)c2)cc1` [Example 47, 1-(1-(4-(4-Fluorophenyl)pyridin-2-yl)piperidin-4-yl)-3-(pyridin-3-yl)thiourea]: the inhibition at 10 µM is ≥ 75%. On the same count and under the same terms, the figure for `Fc1ccc(-c2ccnc(N3CCC(NC(=S)Nc4cccnc4)CC3)c2)cc1F` [Example 48, 1-(1-(4-(3,4-Difluorophenyl)pyridin-2-yl)piperidin-4-yl)-3-(pyridin-3-yl)thiourea] is ≥ 75%; for `FC(F)(F)Oc1cccc(Oc2ccnc(N3CCC(NC(=S)Nc4cccnc4)CC3)c2)c1` [Example 49, 1-(Pyridin-3-yl)-3-(1-(4-(3-(trifluoromethoxy)phenoxy)pyridin-2-yl)piperidin-4-yl)thiourea] it is ≥ 75%; for `FC(F)(F)Oc1ccccc1Oc1ccnc(N2CCC(NC(=S)Nc3cccnc3)CC2)c1` [Example 50, 1-(Pyridin-3-yl)-3-(1-(4-(2-(trifluoromethoxy)phenoxy)pyridin-2-yl)piperidin-4-yl)thiourea] it is ≥ 75%. As to `FC(F)(F)c1cccc(Oc2ccnc(N3CCC(NC(=S)Nc4cccnc4)CC3)c2)c1` [Example 52, 1-(Pyridin-3-yl)-3-(1-(4-(3-(trifluoromethyl)phenoxy)pyridin-2-yl)piperidin-4-yl)thiourea], the inhibition at 10 µM was ≥ 75%. `FC(F)(F)c1ccccc1Oc1ccnc(N2CCC(NC(=S)Nc3cccnc3)CC2)c1` [Example 53, 1-(Pyridin-3-yl)-3-(1-(4-(2-(trifluoromethyl)phenoxy)pyridin-2-yl)piperidin-4-yl)thiourea]: the inhibition at 10 µM was ≥ 75%. For `FC(F)(F)Oc1ccc(Oc2ccnc(N3CCC(NC(=S)Nc4cccnc4)CC3)c2)c(Cl)c1` [Example 55, 1-(1-(4-(2-Chloro-4-(trifluoromethoxy)phenoxy)pyridin-2-yl)piperidin-4-yl)-3-(pyridin-3-yl)thiourea], the inhibition at 10 µM was ≥ 75%.

In the case of `Fc1cc(Oc2ccnc(N3CCC(NC(=S)Nc4cccnc4)CC3)c2)ccc1OC(F)(F)F` [Example 56, 1-(1-(4-(3-Fluoro-4-(trifluoromethoxy)phenoxy)pyridin-2-yl)piperidin-4-yl)-3-(pyridin-3-yl)thiourea], the inhibition at 10 µM is ≥ 75%. The same measure, in the same setting: the figure for `Fc1ccc(OC(F)(F)F)cc1Oc1ccnc(N2CCC(NC(=S)Nc3cccnc3)CC2)c1` [Example 58, 1-(1-(4-(2-Fluoro-5-(trifluoromethoxy)phenoxy)pyridin-2-yl)piperidin-4-yl)-3-(pyridin-3-yl)thiourea] is ≥ 75%. Same read-out and setting: the value for `FC(F)(F)Oc1ccc(Oc2cc(N3CCC(NC(=S)Nc4cccnc4)CC3)nc(C(F)(F)F)c2)cc1` [Example 60, 1-(Pyridin-3-yl)-3-(1-(4-(4-(trifluoromethoxy)phenoxy)-6-(trifluoromethyl)pyridin-2-yl)piperidin-4-yl)thiourea] was 0 to 25%; that for `CCCCCc1ccc(Oc2ccnc(N3CCC(NC(=S)Nc4cccnc4)CC3)c2)cc1` [Example 61, 1-(1-(4-(4-Pentylphenoxy)pyridin-2-yl)piperidin-4-yl)-3-(pyridin-3-yl)thiourea] was ≥ 75%. Still for that read-out and setting: the value for `FC(F)Oc1ccc(Oc2ccnc(N3CCC(NC(=S)Nc4cccnc4)CC3)c2)cc1` [Example 62, 1-(1-(4-(4-(Difluoromethoxy)phenoxy)pyridin-2-yl)piperidin-4-yl)-3-(pyridin-3-yl)thiourea] was ≥ 75%. Turning to `FC(F)(F)Oc1cc(Oc2ccnc(N3CCC(NC(=S)Nc4cccnc4)CC3)c2Cl)ccc1Cl` [Example 63, 1-(1-(3-Chloro-4-(4-chloro-3-(trifluoromethoxy)phenoxy)pyridin-2-yl)piperidin-4-yl)-3-(pyridin-3-yl)thiourea], the pIC50 is ≥ 7.00.

Regarding `Fc1cc(Oc2ccnc(N3CCC(NC(=S)Nc4cccnc4)CC3)c2Cl)ccc1OC(F)(F)F` [Example 64, 1-(1-(3-Chloro-4-(3-fluoro-4-(trifluoromethoxy)phenoxy)pyridin-2-yl)piperidin-4-yl)-3-(pyridin-3-yl)thiourea], the pIC50 was ≥ 7.00. On the same count and under the same terms, the figure for `Fc1ccc(Oc2ccnc(N3CCC(NC(=S)Nc4cccnc4)CC3)c2Cl)cc1OC(F)(F)F` [Example 68, 1-(1-(3-Chloro-4-(4-fluoro-3-(trifluoromethoxy)phenoxy)pyridin-2-yl)piperidin-4-yl)-3-(pyridin-3-yl)thiourea] is ≥ 7.00. Take `Cc1cc(F)ccc1Oc1ccnc(N2CCC(NC(=S)Nc3cccnc3)CC2)c1Cl` [Example 69, 1-(1-(3-Chloro-4-(4-fluoro-2-methylphenoxy)pyridin-2-yl)piperidin-4-yl)-3-(pyridin-3-yl)thiourea]: the pIC50 is 6.00 to 7.00. Still for that read-out and setting: the value for `Cc1cc(Oc2ccnc(N3CCC(NC(=S)Nc4cccnc4)CC3)c2Cl)ccc1F` [Example 70, 1-(1-(3-Chloro-4-(4-fluoro-3-methylphenoxy)pyridin-2-yl)piperidin-4-yl)-3-(pyridin-3-yl)thiourea] was 6.00 to 7.00; that for `Cc1cc(OC(F)(F)F)ccc1Oc1ccnc(N2CCC(NC(=S)Nc3cccnc3)CC2)c1Cl` [Example 73, 1-(1-(3-Chloro-4-(2-methyl-4-(trifluoromethoxy)phenoxy)pyridin-2-yl)piperidin-4-yl)-3-(pyridin-3-yl)thiourea] was ≥ 7.00.

As to `Cc1ccc(Oc2ccnc(N3CCC(NC(=S)Nc4cccnc4)CC3)c2)cc1` [Example 75, 1-(Pyridin-3-yl)-3-(1-(4-(p-tolyloxy)pyridin-2-yl)piperidin-4-yl)thiourea], the pIC50 is 4.60 to 6.00.

For the molecule `CC(=O)c1ccnc(N2CCC(NC(=S)Nc3cccnc3)CC2)c1` [Example 76, 1-(1-(4-Acetylpyridin-2-yl)piperidin-4-yl)-3-(pyridin-3-yl)thiourea], the inhibition at 10 µM is 25 to 50% and the pIC50 is 4.60 to 6.00. Regarding `O=C(Nc1cccnc1)NC1CCN(c2ncc(C(F)(F)F)cc2Cl)CC1` [Example 77, 1-(1-(3-Chloro-5-(trifluoromethyl)pyridin-2-yl)piperidin-4-yl)-3-(pyridin-3-yl)urea], the inhibition at 10 µM lay in the range of 25 to 50%. The same measure, in the same setting: the value for `FC(F)(F)c1cnc(N2CCC(NC(=S)Nc3cccnc3)CC2)nc1` [Example 78, 1-(Pyridin-3-yl)-3-(1-(5-(trifluoromethyl)pyrimidin-2-yl)piperidin-4-yl)thiourea] was 50 to 75%. On the same count and under the same terms, the value for `FC(F)(F)c1ccc(N2CCC(NC(=S)Nc3cccnc3)CC2)nn1` [Example 79, 1-(Pyridin-3-yl)-3-(1-(6-(trifluoromethyl)pyridazin-3-yl)piperidin-4-yl)thiourea] was 0 to 25%.

With `FC(F)(F)c1cnc(N2CCCC(NC(=S)Nc3cccnc3)CC2)c(Cl)c1` (centres unmarked) [Example 80, 1-(1-(3-Chloro-5-(trifluoromethyl)pyridin-2-yl)azepan-4-yl)-3-(pyridin-3-yl)thiourea], the inhibition at 10 µM is 50 to 75%.

As for `FC(F)(F)c1cnc(NCCCCCNC(=S)Nc2cccnc2)c(Cl)c1` [Example 81, 1-(5-((3-Chloro-5-(trifluoromethyl)pyridin-2-yl)amino)pentyl)-3-(pyridin-3-yl)thiourea], the inhibition at 10 µM was ≥ 75%. Regarding `CN(C(=S)Nc1cccnc1)C1CCN(c2ncc(C(F)(F)F)cc2Cl)CC1` [Example 82, 1-(1-(3-Chloro-5-(trifluoromethyl)pyridin-2-yl)piperidin-4-yl)-1-methyl-3-(pyridin-3-yl)thiourea], the inhibition at 10 µM is 50 to 75%.
